Assays:
Tetranychus urticae = Tetranychus urticae spray test, OP-resistant (TETRUR); assay type: in vivo; settings: after 6 days; for pest or weed control at 500 g/ha: Tetranychus urticae, 144 h, read-out: efficacy
Procedure: Tetranychus urticae—Spray Test, OP-Resistant (TETRUR)
• Solvent: 78.0 parts by weight of acetone • 1.5 parts by weight of dimethylformamide • Emulsifier: 0.5 part by weight of alkylaryl polyglycol ether
To produce an appropriate active ingredient formulation, 1 part by weight of active ingredient is mixed with the specified amounts of solvent and emulsifier, and the concentrate is diluted to the desired concentration with emulsifier-containing water.
Discs of bean leaves (Phaseolus vulgaris) infested by all stages of the greenhouse red spider mite (Tetranychus urticae) are sprayed with an active ingredient formulation of the desired concentration.
After 6 days, the efficacy in % is determined 100% means that all the spider mites have been killed; 0% means that none of the spider mites have been killed.

[1] = log P by HPLC (OECD Guideline 117), method [a] acidic range; assay type: physicochemical; settings: for logP[a]: HPLC, method [a] acidic range; for chromatographic logP: reversed-phase C18 HPLC column, acidic range
Procedure: (§1) The log P values were determined analogously to OECD Guideline 117 (EC Directive 92/69/EEC) by HPLC (high-performance liquid chromatography) using reversed-phase columns (C 18), by the following methods:
[a] The LC-MS determination in the acidic range is effected at pH 2.7 with 0.1% aqueous formic acid and acetonitrile (contains 0.1% formic acid) as eluents; linear gradient from 10% acetonitrile to 95% acetonitrile.

[2] = log P by HPLC (OECD Guideline 117), method [b] neutral range; assay type: physicochemical; settings: HPLC; for logP[b]: method [b] neutral range; for chromatographic logP: reversed-phase C18 HPLC column, neutral range, pH 7.8
Procedure: as §1
[b] The LC-MS determination in the neutral range is effected at pH 7.8 with 0.001 molar aqueous ammonium hydrogencarbonate solution and acetonitrile as eluents; linear gradient from 10% acetonitrile to 95% acetonitrile.

[3] = pH 2.7, HPLC method [a], read-out: logP[a]
[4] = pH 2.7, HPLC, pH 2.7, read-out: log P[a]

## COCc1nn(-c2cc(SCC(F)(F)F)c(C)cc2F)c(=O)n1N [Example 198]
Tetranychus urticae; application rate of 500 g/ha
  efficacy: 100%
[1]
  logP[a]: 2.28
[2]
  logP[b]: 2.22

## C=CCn1c([S+]([O-])C(C)C)nn(-c2cc([S+]([O-])CC(F)(F)F)c(C)cc2F)c1=O (stereo not drawn) [Example 249]
Tetranychus urticae; application rate of 500 g/ha
  efficacy: 90%
[1]
  logP[a]: 2.32
[2]
  logP[b]: 2.26

## CCN(CC)c1nn(-c2cc(SCC(F)(F)F)c(C)cc2F)c(=O)n1N [Example 222]
Tetranychus urticae; application rate of 500 g/ha
  efficacy: 90%
[1]
  logP[a]: 3.22
[2]
  logP[b]: 3.17

## CCOCc1nn(-c2cc(SCC(F)(F)F)c(C)cc2F)c(=O)n1C1CC1 [Example 73]
Tetranychus urticae; application rate of 500 g/ha
  efficacy: 90%
[1]
  logP[a]: 3.33
[2]
  logP[b]: 3.27

## Cc1cc(F)c(-n2nc(-c3cccc(F)c3)n(C3CC3)c2=O)cc1[S+]([O-])CC(F)(F)F (racemic) [Example 70]
Tetranychus urticae; application rate of 500 g/ha
  efficacy: 90%
[1]
  logP[a]: 2.94
[2]
  logP[b]: 2.87

## Cc1cc(F)c(-n2nc(OC(C)C)n(C3CC3)c2=O)cc1[S+]([O-])CC(F)(F)F (stereo not drawn) [Example 100]
Tetranychus urticae; application rate of 500 g/ha
  efficacy: 100%
[1]
  logP[a]: 2.82
[2]
  logP[b]: 2.79

## CCn1c([S+](C)[O-])nn(-c2cc(SCC(F)(F)F)c(C)cc2F)c1=O (stereo not drawn) [Example 240]
Tetranychus urticae; application rate of 500 g/ha
  efficacy: 100%
[1]
  logP[a]: 2.53
[2]
  logP[b]: 2.46

## CSc1nn(-c2cc(SCC(F)(F)F)c(C)cc2F)c(=O)n1C1CC1 [Example 259]
Tetranychus urticae; application rate of 500 g/ha
  efficacy: 100%
[1]
  logP[a]: 3.56
[2]
  logP[b]: 3.60

## C=CCSc1nn(-c2cc(SCC(F)(F)F)c(C)cc2F)c(=O)n1C1CC1 [Example 425]
Tetranychus urticae; application rate of 500 g/ha
  efficacy: 100%
[1]
  logP[a]: 4.10
[2]
  logP[b]: 4.01

## COC1=CC(=O)N(c2cc([S+]([O-])CC(F)(F)F)c(Cl)cc2F)C1 (stereo not drawn) [Example 324]
Tetranychus urticae; application rate of 500 g/ha
  efficacy: 100%
[1]
  logP[a]: 2.13
[2]
  logP[b]: 2.11

## Cc1cc(C)c(-n2nc(C(F)(F)F)n(C(C)(C)C)c2=O)cc1SCC(F)(F)F [Example 49]
Tetranychus urticae; application rate of 500 g/ha
  efficacy: 90%
[1]
  logP[a]: 4.95
[2]
  logP[b]: 4.88

## Cc1cc(F)c(-n2nc(SCC3CC3)n(C)c2=O)cc1SCC(F)(F)F [Example 279]
Tetranychus urticae; application rate of 500 g/ha
  efficacy: 100%
[1]
  logP[a]: 3.91
[2]
  logP[b]: 3.83

## COC1=CC(=O)N(c2ccc(C)c([S+]([O-])CC(F)(F)F)c2)C1 (racemic) [Example 317]
Tetranychus urticae; application rate of 500 g/ha
  efficacy: 90%
[1]
  logP[a]: 1.90
[2]
  logP[b]: 1.90

## Cc1cc(F)c(-n2nc(C)n(C3CC3)c2=O)cc1[S+]([O-])CC(F)(F)F (stereo not drawn) [Example 41]
Tetranychus urticae; application rate of 500 g/ha
  efficacy: 90%
[1]
  logP[a]: 1.85
[2]
  logP[b]: 1.79

## COCCOc1nn(-c2cc(SCC(F)(F)F)c(C)cc2F)c(=O)n1C [Example 149]
Tetranychus urticae; application rate of 500 g/ha
  efficacy: 100%
[1]
  logP[a]: 2.83
[2]
  logP[b]: 2.76

## CCCCOc1nn(-c2cc(SCC(F)(F)F)c(C)cc2F)c(=O)n1C [Example 128]
Tetranychus urticae; application rate of 500 g/ha
  efficacy: 90%
[1]
  logP[a]: 4.11
[2]
  logP[b]: 3.95

## Cc1cc(F)c(-n2nc(C(F)(F)F)n(C(C)(C)C)c2=O)cc1[S+]([O-])CC(F)(F)F (racemic) [Example 68]
Tetranychus urticae; application rate of 500 g/ha
  efficacy: 100%
[1]
  logP[a]: 3.54
[2]
  logP[b]: 3.49

## CCCCOC1=CC(=O)N(c2cc([S+]([O-])CC(F)(F)F)c(C)cc2F)C1 (stereo not drawn) [Example 326]
Tetranychus urticae; application rate of 500 g/ha
  efficacy: 90%
[1]
  logP[a]: 2.91
[2]
  logP[b]: 2.88

## COCCc1nn(-c2cc(SCC(F)(F)F)c(C)cc2F)c(=O)n1C1CC1 [Example 75]
Tetranychus urticae; application rate of 500 g/ha
  efficacy: 100%
[1]
  logP[a]: 2.97
[2]
  logP[b]: 2.89

## CCc1nn(-c2cc(SCC(F)(F)F)c(C)cc2F)c(=O)n1-c1cccnc1 [Example 348]
Tetranychus urticae; application rate of 500 g/ha
  efficacy: 90%
[1]
  logP[a]: 2.91
[2]
  logP[b]: 2.87

## CCCSc1nn(-c2cc(SCC(F)(F)F)c(C)cc2F)c(=O)n1C1CC1 [Example 265]
Tetranychus urticae; application rate of 500 g/ha
  efficacy: 100%
[1]
  logP[a]: 4.41
[2]
  logP[b]: 4.32

## Cc1cc(F)c(-n2nc(C3CC3)oc2=O)cc1SCC(F)(F)F [Example 456]
Tetranychus urticae; application rate of 500 g/ha
  efficacy: 100%
[1]
  logP[a]: 3.62
[2]
  logP[b]: 3.55

## Cc1cc(Cl)c(-n2nc(OCC(C)(C)C)n(C3CC3)c2=O)cc1SCC(F)(F)F [Example 396]
Tetranychus urticae; application rate of 500 g/ha
  efficacy: 100%
[1]
  logP[a]: 4.92
[2]
  logP[b]: 4.85

## Cc1cc(C)c(-n2nc(OCC(F)(F)F)n(C3CC3)c2=O)cc1SCC(F)(F)F [Example 377]
Tetranychus urticae; application rate of 500 g/ha
  efficacy: 100%
[1]
  logP[a]: 4.01
[2]
  logP[b]: 3.92

## Cc1cc(F)c(-n2nc(-c3cccc(F)c3)n(C3CC3)c2=O)cc1SCC(F)(F)F [Example 69]
Tetranychus urticae; application rate of 100 g/ha
  efficacy: 100%
[1]
  logP[a]: 3.98
[2]
  logP[b]: 3.89

## Cc1cc(F)c(-n2nc(C)n(N(C)C)c2=O)cc1SCC(F)(F)F [Example 201]
Tetranychus urticae; application rate of 500 g/ha
  efficacy: 100%
[1]
  logP[a]: 3.17
[2]
  logP[b]: 3.14

## CCSc1nn(-c2cc(SCC(F)(F)F)c(C)cc2F)c(=O)n1C [Example 273, 5-(Ethylsulphanyl)-2-{2-fluoro-4-methyl-5-[(2,2,2-trifluoroethyl)sulphanyl]phenyl}-4-methyl-2,4-dihydro-3H-1,2,4-triazol-3-one]
Tetranychus urticae; application rate of 500 g/ha
  pest or weed control at 500 g/ha: 100%
[1]; [3]
  chromatographic logP: 3.51
[1]; [4]
  chromatographic logP: 3.51
[2]
  chromatographic logP: 3.44

## CCSc1nn(-c2cc([S+]([O-])CC(F)(F)F)c(C)cc2F)c(=O)n1C (stereo not drawn) [Example 274, 5-(Ethylsulphanyl)-2-{2-fluoro-4-methyl-5-[(2,2,2-trifluoroethyl)sulphinyl]phenyl}-4-methyl-2,4-dihydro-3H-1,2,4-triazol-3-one]
Tetranychus urticae; application rate of 500 g/ha
  pest or weed control at 500 g/ha: 100%
[1]; [3]
  chromatographic logP: 2.42
[1]; [4]
  chromatographic logP: 2.42
[2]
  chromatographic logP: 2.36

## Cc1cc(F)c(-n2ncoc2=O)cc1SCC(F)(F)F [Example 454]
Tetranychus urticae; application rate of 500 g/ha
  efficacy: 90%
[1]
  logP[a]: 2.85
[2]
  logP[b]: 2.83

## CCc1nn(-c2cc([S+]([O-])CC(F)(F)F)c(C)cc2F)c(=O)n1-c1cccnc1 (racemic) [Example 354]
[1]
  logP[a]: 1.98
[2]
  logP[b]: 1.97

## COc1nn(-c2ccc(C(F)(F)F)c([S+]([O-])CC(F)(F)F)c2)c(=O)n1C1CC1 (stereo not drawn) [Example 147]
[1]
  logP[a]: 3.27
[2]
  logP[b]: 3.19
